From PubChem BioAssay (NCI)
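How tested: cells in 96-well plates exposed to compound for 48 hours at five concentrations. The concentration for full growth arrest is given as TGI.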

How the values were obtained:
Experiment in all cases: NCI-60 cell line screen, 48 h
786-0 renal = system: 786-0 renal
A498 renal = system: A498 renal
A549 NSCLC = system: A549 NSCLC
ACHN renal = system: ACHN renal
CAKI-1 renal = system: CAKI-1 renal
CCRF-CEM leukemia = system: CCRF-CEM leukemia
COLO 205 colon = system: COLO 205 colon
DLD-1 colon = system: DLD-1 colon
DMS 114 small cell lung = system: DMS 114 small cell lung
DMS 273 small cell lung = system: DMS 273 small cell lung
EKVX NSCLC = system: EKVX NSCLC
HCC-2998 colon = system: HCC-2998 colon
HCT-116 colon = system: HCT-116 colon
HCT-15 colon = system: HCT-15 colon
HL-60(TB) leukemia = system: HL-60(TB) leukemia
HOP-18 NSCLC = system: HOP-18 NSCLC
HOP-62 NSCLC = system: HOP-62 NSCLC
HOP-92 NSCLC = system: HOP-92 NSCLC
HT29 colon = system: HT29 colon
IGROV1 ovarian = system: IGROV1 ovarian
K-562 leukemia = system: K-562 leukemia
KM12 colon = system: KM12 colon
KM20L2 colon = system: KM20L2 colon
LOX IMVI melanoma = system: LOX IMVI melanoma
LXFL 529 NSCLC = system: LXFL 529 NSCLC
M14 melanoma = system: M14 melanoma
M19-MEL melanoma = system: M19-MEL melanoma
MALME-3M melanoma = system: MALME-3M melanoma
MOLT-4 leukemia = system: MOLT-4 leukemia
NCI-H226 lung = system: NCI-H226 lung
NCI-H23 lung = system: NCI-H23 lung
NCI-H460 lung = system: NCI-H460 lung
NCI-H522 lung = system: NCI-H522 lung
OVCAR-3 ovarian = system: OVCAR-3 ovarian
OVCAR-4 ovarian = system: OVCAR-4 ovarian
OVCAR-5 ovarian = system: OVCAR-5 ovarian
OVCAR-8 ovarian = system: OVCAR-8 ovarian
RPMI-8226 leukemia = system: RPMI-8226 leukemia
RXF-631 renal = system: RXF-631 renal
SF-268 CNS = system: SF-268 CNS
SF-295 CNS = system: SF-295 CNS
SF-539 CNS = system: SF-539 CNS
SK-MEL-2 melanoma = system: SK-MEL-2 melanoma
SK-MEL-28 melanoma = system: SK-MEL-28 melanoma
SK-MEL-5 melanoma = system: SK-MEL-5 melanoma
SK-OV-3 ovarian = system: SK-OV-3 ovarian
SN12C renal = system: SN12C renal
SNB-19 CNS = system: SNB-19 CNS
SNB-75 CNS = system: SNB-75 CNS
SNB-78 CNS = system: SNB-78 CNS
SR leukemia = system: SR leukemia
SW-620 colon = system: SW-620 colon
TK-10 renal = system: TK-10 renal
U251 CNS = system: U251 CNS
UACC-257 melanoma = system: UACC-257 melanoma
UACC-62 melanoma = system: UACC-62 melanoma
UO-31 renal = system: UO-31 renal
XF 498 CNS = system: XF 498 CNS

`COc1ccc2c(c1)c1c3n2CCNN=C3CCC1` gave a TGI (786-0 renal) of over 100 µM, a TGI (A498 renal) of over 100 µM and a TGI (A549 NSCLC) of over 100 µM. For the same molecule, the TGI (ACHN renal) was over 100 µM, the TGI (CAKI-1 renal) was over 100 µM and the TGI (CCRF-CEM leukemia) was over 100 µM. It also gave a TGI (COLO 205 colon) of over 100 µM, a TGI (DLD-1 colon) of over 100 µM and a TGI (DMS 114 small cell lung) of over 100 µM. The TGI (DMS 273 small cell lung) was over 100 µM, the TGI (EKVX NSCLC) was over 100 µM and the TGI (HCC-2998 colon) was over 100 µM. For the same molecule, the TGI (HCT-116 colon) was over 100 µM, the TGI (HCT-15 colon) was over 100 µM and the TGI (HL-60(TB) leukemia) was over 71.4 µM. For the same molecule, the TGI (HOP-18 NSCLC) was over 100 µM, the TGI (HOP-62 NSCLC) was over 100 µM and the TGI (HOP-92 NSCLC) was over 100 µM. It also gave a TGI (HT29 colon) of over 100 µM, a TGI (IGROV1 ovarian) of over 100 µM and a TGI (K-562 leukemia) of over 100 µM. For the same molecule, the TGI (KM12 colon) was over 100 µM, the TGI (KM20L2 colon) was over 100 µM and the TGI (LOX IMVI melanoma) was over 100 µM. The TGI (LXFL 529 NSCLC) was over 100 µM, the TGI (M14 melanoma) was over 100 µM and the TGI (M19-MEL melanoma) was over 100 µM. It also gave a TGI (MALME-3M melanoma) of over 100 µM, a TGI (MOLT-4 leukemia) of over 100 µM and a TGI (NCI-H226 lung) of over 100 µM. For the same molecule, the TGI (NCI-H23 lung) was over 100 µM, the TGI (NCI-H460 lung) was over 100 µM and the TGI (NCI-H522 lung) was over 100 µM. It also gave a TGI (OVCAR-3 ovarian) of over 100 µM, a TGI (OVCAR-4 ovarian) of over 100 µM and a TGI (OVCAR-5 ovarian) of over 100 µM. For the same molecule, the TGI (OVCAR-8 ovarian) was over 100 µM, the TGI (RPMI-8226 leukemia) was over 100 µM and the TGI (RXF-631 renal) was over 100 µM. For the same molecule, the TGI (SF-268 CNS) was over 100 µM, the TGI (SF-295 CNS) was over 100 µM and the TGI (SF-539 CNS) was over 100 µM. The TGI (SK-MEL-2 melanoma) was over 100 µM, the TGI (SK-MEL-28 melanoma) was over 100 µM and the TGI (SK-MEL-5 melanoma) was over 100 µM. For the same molecule, the TGI (SK-OV-3 ovarian) was over 100 µM, the TGI (SN12C renal) was over 100 µM and the TGI (SNB-19 CNS) was over 100 µM. For the same molecule, the TGI (SNB-75 CNS) was over 100 µM, the TGI (SNB-78 CNS) was over 94.3 µM and the TGI (SR leukemia) was over 100 µM. It also gave a TGI (SW-620 colon) of over 100 µM, a TGI (TK-10 renal) of over 86.9 µM and a TGI (U251 CNS) of over 100 µM. The TGI (UACC-257 melanoma) was over 100 µM, the TGI (UACC-62 melanoma) was over 100 µM and the TGI (UO-31 renal) was over 100 µM. It also gave a TGI (XF 498 CNS) of over 100 µM.
